A compilation of properties of binary mixtures (doi:10.1021/acs.jpcc.9b07923)

Assay: xn = mol fraction of the nth substance listed
Conditions: 100 kPa

Fc1ccccn1 + Fc1cccc[nH+]1.O=S(=O)([O-])C(F)(F)F
Conditions	electrical conductivity [S/m]
242.2 K, x1 = 0.95	0.091
242.4 K, x1 = 0.5	0.0018
242.6 K, x1 = 0.86	0.075
244.9 K, x2 = 0.01	0.083
247.7 K, x1 = 0.9	0.109
251.9 K, x1 = 0.95	0.118
252.3 K, x1 = 0.86	0.113
252.8 K, x1 = 0.5	0.0037
254.7 K, x2 = 0.01	0.102
257.7 K, x1 = 0.9	0.168
262 K, x1 = 0.95	0.353
262.5 K, x2 = 0.01	0.12
262.6 K, x1 = 0.9	0.201
262.7 K, x1 = 0.86	0.161
267.6 K, x1 = 0.86	0.187
267.6 K, x1 = 0.9	0.24
271.8 K, x1 = 0.95	0.445
272.4 K, x1 = 0.9	0.279
272.5 K, x1 = 0.86	0.229
272.6 K, x2 = 0.01	0.137
272.7 K, x1 = 0.5	0.0132
277.5 K, x1 = 0.9	0.532
277.9 K, x1 = 0.86	0.295
282.6 K, x2 = 0.01	0.156
282.9 K, x1 = 0.86	0.408
287.4 K, x1 = 0.5	0.0369
287.7 K, x1 = 0.9	0.608
287.7 K, x2 = 0.01	0.161
292.1 K, x1 = 0.95	0.596
292.2 K, x1 = 0.5	0.0485
292.6 K, x1 = 0.86	0.658
296.9 K, x1 = 0.95	0.644
297.4 K, x1 = 0.5	0.0902
297.6 K, x1 = 0.86	0.711
297.6 K, x2 = 0.01	0.189
302.3 K, x1 = 0.5	0.185
302.5 K, x2 = 0.01	0.204
303 K, x1 = 0.86	0.769
303.3 K, x1 = 0.95	0.664
